Test results from patent US20070149580A1, “USE OF PEROXISOME PROLIFERATOR ACTIVATED RECEPTOR DELTA AGONISTS FOR THE TREATMENT OF MS AND OTHER DEMYELINATING DISEASES” (AVENTIS PHARMACEUTICALS INC., priority 2004, published 2007).

Legend:
human RXR receptor = assay: Cellular human RXR receptor luciferase reporter assay; format: cell-based; conditions: Retinoid X receptor
Protocol: Determination of EC50 Values in the Cellular Human RXR Receptor Assay
Cell Based RXR Assay Protocol
To perform cell based assays a luciferase assay is performed in 96 well plates as follows: […]
• Aspirate medium from cells • Freeze plates at −20° C. (optional) • Thaw plates for 30 min (if necessary) • Add 50 μl Bright-Glo-Luciferase Assay Reagent (Promega, Cat. No. E2650) • Incubate for 10 min in the dark • Measure luminescence 2 sec per well (Wallac Microbeta) Data Analysis […]

[1] = tested on: mixed cultures of human oligodendrocytes; assay: Human oligodendrocyte differentiation assay (O4 immunopositive cell count); format: cell-based; conditions: FIGS. 5 and 6
Protocol: • 1. Human neurospheres collected from E19.5-[…] human embryo cortex) are cultured for 2 weeks in progenitor media: […] Neurospheres are dissociated with 20 U/ml papain at 37° C. for 30-50 min. • 3. Cells are plated onto PDL coated dishes at density of 50,000-100,000 cell/well in progenitor media containing PDGF/FGF and incubated at 37° C. with 5-6% CO2. • 4. Media and growth factors are replenished every 48 hr. Human Culture Compound Treatment: • 1. 24 to 48 hr after plating remove the old medium and add compounds in fresh medium (with mitogen) • 2. Compound dose response evaluations are performed at 3-6 different concentrations (10 µM, 1 µM, 100 nM, 10 nM, 1 nM, and 0.1 nM) • 3. […] Sequential staining is performed on oligodendrocyte populations with increasing degrees of cellular differentiation, as determined by days in vitro without PDGF and FGF. • 2. […] Colormetric visualization of the BrdU immunoreactivity is developed with DAB and total cell numbers are assessed using the counter-stain hematoxylin. • 4. BrdU immunopositive cells are counted by two independent observers. Rat/Mouse/Human Culture Image Analysis: Fluorescent microscopy is used to quantitate the extent of oligodendrocyte differentiation after compound exposure. […] Manual Cell Counting: Four fields are randomly selected for each experimental condition and 500-600 cells are counted in each field. […]

| SMILES | Human PPAR RXR EC50 (human RXR receptor) | number of O4 immunopositive cells [1] |
| --- | --- | --- |
| Cc1cc(SCc2sc(-c3ccc(C(F)(F)F)cc3)nc2C)ccc1OCC(=O)O [Compound 1] | No increase | increase |
| CCCc1c(OCCCOc2ccc(OCC(=O)O)cc2)ccc(C(C)=O)c1O [Compound 2] | No increase | increase |
